From patent publication US7399760B2, “Pyrimidinedione derivatives” (Bexel Pharmaceuticals Inc., priority 2002, dated 2008) come the findings set out here.

One may read the inhibition as the relative decrease from the control value, in per cent. A high value points to a response far below the control. The melting point is the temperature, or range, at which the solid turns liquid.

One data set relates to IL-6. The data set is described as follows: IL-6 production from LPS-stimulated human monocytes (ELISA). It is filed as cell-based. As to conditions: Monocyte, Conc. 10 μM. The procedure: This assay determines the effect of test compounds on the production of IL-6 from human monocytes. Compounds are tested for their ability to downregulate the production of IL-6 in activated monocytes. Test compounds were incubated for three, six and twenty four hours with human monocytes. Lipopolysaccharide was used to stimulate the monocytes. The level of Interleukin-6 is quantitated using Enzyme-Linked Immunosorbent assay performed in a 96 well format.

For the next data set, the system named is TNF-α. In words: TNF-α production from LPS-stimulated human monocytes (ELISA). It is filed as cell-based. The conditions noted are these: Monocyte, Conc. 10 μM. On the procedure: This assay determines the effect of test compounds on the production of TNF-α from human monocytes. Compounds were tested for their ability to downregulate the production of TNF-α in activated monocytes. Test compounds were incubated for three, six and twenty four hours with human monocytes. Lipopolysaccharide was used to stimulate the monocytes. The level of TNF-α was quantitated using Enzyme-Linked Immunosorbent assay performed in a 96 well format.

The target in a further data set is T1, COX-2 (Homo sapiens, UniProt P35354).
T1 construct: incubation of human blood with lipopolysaccharide (LPS), which induces COX-2 production in the blood; endogenous in cells; host or cells: fresh human whole blood from male volunteers, treated with aspirin and then LPS
T1 sequence (P35354 18-604): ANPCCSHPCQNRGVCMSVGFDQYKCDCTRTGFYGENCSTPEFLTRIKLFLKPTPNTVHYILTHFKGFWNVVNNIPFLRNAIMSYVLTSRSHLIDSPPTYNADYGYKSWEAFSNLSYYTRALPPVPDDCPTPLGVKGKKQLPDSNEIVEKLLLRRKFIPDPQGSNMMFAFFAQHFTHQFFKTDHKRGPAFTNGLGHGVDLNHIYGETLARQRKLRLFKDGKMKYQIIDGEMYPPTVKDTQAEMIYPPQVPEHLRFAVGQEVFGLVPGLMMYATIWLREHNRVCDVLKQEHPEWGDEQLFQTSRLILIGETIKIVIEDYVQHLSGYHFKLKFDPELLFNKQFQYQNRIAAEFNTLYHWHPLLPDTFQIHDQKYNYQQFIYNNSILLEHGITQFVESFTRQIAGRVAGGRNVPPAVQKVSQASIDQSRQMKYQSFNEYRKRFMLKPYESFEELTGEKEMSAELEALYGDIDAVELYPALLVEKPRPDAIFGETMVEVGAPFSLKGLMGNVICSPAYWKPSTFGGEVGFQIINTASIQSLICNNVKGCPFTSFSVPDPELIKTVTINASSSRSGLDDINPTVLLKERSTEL
In words: Human whole blood assay, COX-2 inhibition (PGE2 ELISA after LPS). It counts as cell-based. The conditions noted are these: Conc. 1 μM, aspirin-treated, LPS 10 μg/ml, 24 h at 37° C., PGE2 in plasma. On the procedure: The COX-2 inhibition activity of the compounds illustrated in the examples was determined by the following method.
Human whole blood provides a protein and cell rich milieu appropriate for the study of biochemical efficacy of anti-inflammatory compounds such as selective COX-2 inhibitors. […] This is correlating with the observation that COX-2 inhibitors have no effect on prostaglandin E2 (PGE2) production in normal blood. These inhibitors are active only after incubation of human blood with lipopolysaccharide (LPS), which induces COX-2 production in the blood.
Fresh blood was collected in tubes containing potassium EDTA by vein puncture from male volunteers. The subjects should have no apparent inflammatory conditions and not taken NSAIDs for atleast 7 days prior to blood collection. Blood was treated with aspirin in vitro (10 μg/ml, at time zero) to inactivate COX-1, and then with LPS (10 μg/ml) along with test agents or vehicle. The blood was incubated for 24 h at 37° C., after which the tubes were centrifuged, the plasma was separated and stored at −80° C. (J Pharmacol Exp Ther 271, 1705, 1994; Proc Natl Acad Sci USA 96, 7563, 1999). The plasma was assayed for PGE2 using Cayman ELISA kit as per the procedure outlined by the manufacturer (Cayman Chemicals, Ann Arbor, USA). […]

`CSc1ccc(-n2c(-c3ccccc3)cc(=O)[nH]c2=O)cc1` [Example 1, 1-(4-methylsulfanyl-phenyl)-6-phenyl-1H-pyrimidin-2,4-(1H)-dione]: the melting point was 239 to 242 °C (dec.). The inhibition at 10 µM in the data set on IL-6 was 80.6%. This compound gave an inhibition at 10 µM in the data set with TNF-α of 48.5%.

Turning to `CSc1ccc(-n2c(-c3ccc(C)cc3)cc(=O)[nH]c2=O)cc1` [Example 2, 1-(4-methylsulfanyl-phenyl)-6-(4-methylphenyl)-1H-pyrimidin-2,4-(1H)-dione], the melting point is 235 to 238 °C. Also, 10 µM produced 78.6% inhibition in the data set on IL-6. The inhibition at 10 µM in the data set on TNF-α was found to be 69.3%.

Regarding `CSc1ccc(-n2c(-c3ccc(Cl)cc3)cc(=O)[nH]c2=O)cc1` [Example 3, 1-(4-methylsulfanyl-phenyl)-6-(4-chlorophenyl)-1H-pyrimidin-2,4-(1H)-dione], the melting point fell in the range of 249 to 251 °C.

The compound `CSc1ccc(-c2cc(=O)[nH]c(=O)n2-c2ccc(C)cc2)cc1` [Example 4, 1-(4-methylphenyl)-6-(4-methylsulfanyl-phenyl)-1H-pyrimidin-2,4-(1H)-dione] returned a melting point of 266 to 268 °C.

`CSc1ccc(-c2cc(=O)[nH]c(=O)n2-c2ccc(Br)cc2)cc1` [Example 5, 1-(4-bromophenyl)-6-(4-methylsulfanyl-phenyl)-1H-pyrimidin-2,4-(1H)-dione] came in with a melting point of 282 to 285 °C.

Regarding `CS(=O)(=O)c1ccc(-n2c(-c3ccccc3)cc(=O)[nH]c2=O)cc1` [Example 6, 1-(4-methylsulfonyl-phenyl)-6-phenyl-pyrimidin-1H-pyrimidin-2,4-(1H)-dione], the melting point is 283 to 287 °C (dec.). At 10 µM the inhibition with IL-6 was 75.3%. Besides, the inhibition at 10 µM in the data set with TNF-α is 43.2%.

The compound `Cc1ccc(-c2cc(=O)[nH]c(=O)n2-c2ccc(S(C)(=O)=O)cc2)cc1` [Example 7] yielded a melting point of 285 to 288 °C. The same compound returned an inhibition at 1 µM against COX-2 of 40.8%. Besides, in the data set on IL-6, testing at 10 µM gave an inhibition of 81.3%. The same compound registered an inhibition at 10 µM with TNF-α of 57.6%.

Turning to `CS(=O)(=O)c1ccc(-n2c(-c3ccc(Cl)cc3)cc(=O)[nH]c2=O)cc1` [Example 8, 6-(4-chlorophenyl)-1-(4-methylsulfonyl-phenyl)-1H-pyrimidin-2,4-(1H)-dione], the melting point was 294 to 298 °C.
